Source: ChEMBL document CHEMBL5126523, “Recent advances in DDR (DNA damage response) inhibitors for cancer therapy” (Eur J Med Chem, 2022)

Tests used:
LoVo [1] = assay: Inhibition of cell growth in human LoVo cells assessed as measuring ATP content incubated for 3 days by Cell Titer Glo assay; format: functional, cell-based; conditions: 72 h
[2] = AUC in overnight fasted Sprague-Dawley rat at 2 mg/kg, po via gavage measured for 0.25 to 24 hrs by LC/MS/MS analysis; format: ADME, organism-based; design: time 0.25-24 hrs, dose 2 mg/kg, route po; conditions: in vivo
[3] = Half life in overnight fasted Sprague-Dawley rat at 2 mg/kg, po via gavage measured for 0.25 to 24 hrs by LC/MS/MS analysis; format: ADME, organism-based; conditions: in vivo, time 0.25-24 hrs
[4] = Cmax in overnight fasted Sprague-Dawley rat at 2 mg/kg, po via gavage measured for 0.25 to 24 hrs by LC/MS/MS analysis; format: ADME, organism-based; design: dose 2 mg/kg, time upper 24 hrs, time lower 0.25 hrs, route po; conditions: in vivo
ATR/ATRIP = ATR/ATRIP (Homo sapiens, UniProt Q13535); assay: Inhibition of human FLAG-tagged ATR/c-Myc-tagged ATRIP expressed in mammalian expression system using p53 as substrate incubated for 2 hrs by fluorescence based assay
Chain of ATR/ATRIP (Q13535 whole entry, the tested form may be a part): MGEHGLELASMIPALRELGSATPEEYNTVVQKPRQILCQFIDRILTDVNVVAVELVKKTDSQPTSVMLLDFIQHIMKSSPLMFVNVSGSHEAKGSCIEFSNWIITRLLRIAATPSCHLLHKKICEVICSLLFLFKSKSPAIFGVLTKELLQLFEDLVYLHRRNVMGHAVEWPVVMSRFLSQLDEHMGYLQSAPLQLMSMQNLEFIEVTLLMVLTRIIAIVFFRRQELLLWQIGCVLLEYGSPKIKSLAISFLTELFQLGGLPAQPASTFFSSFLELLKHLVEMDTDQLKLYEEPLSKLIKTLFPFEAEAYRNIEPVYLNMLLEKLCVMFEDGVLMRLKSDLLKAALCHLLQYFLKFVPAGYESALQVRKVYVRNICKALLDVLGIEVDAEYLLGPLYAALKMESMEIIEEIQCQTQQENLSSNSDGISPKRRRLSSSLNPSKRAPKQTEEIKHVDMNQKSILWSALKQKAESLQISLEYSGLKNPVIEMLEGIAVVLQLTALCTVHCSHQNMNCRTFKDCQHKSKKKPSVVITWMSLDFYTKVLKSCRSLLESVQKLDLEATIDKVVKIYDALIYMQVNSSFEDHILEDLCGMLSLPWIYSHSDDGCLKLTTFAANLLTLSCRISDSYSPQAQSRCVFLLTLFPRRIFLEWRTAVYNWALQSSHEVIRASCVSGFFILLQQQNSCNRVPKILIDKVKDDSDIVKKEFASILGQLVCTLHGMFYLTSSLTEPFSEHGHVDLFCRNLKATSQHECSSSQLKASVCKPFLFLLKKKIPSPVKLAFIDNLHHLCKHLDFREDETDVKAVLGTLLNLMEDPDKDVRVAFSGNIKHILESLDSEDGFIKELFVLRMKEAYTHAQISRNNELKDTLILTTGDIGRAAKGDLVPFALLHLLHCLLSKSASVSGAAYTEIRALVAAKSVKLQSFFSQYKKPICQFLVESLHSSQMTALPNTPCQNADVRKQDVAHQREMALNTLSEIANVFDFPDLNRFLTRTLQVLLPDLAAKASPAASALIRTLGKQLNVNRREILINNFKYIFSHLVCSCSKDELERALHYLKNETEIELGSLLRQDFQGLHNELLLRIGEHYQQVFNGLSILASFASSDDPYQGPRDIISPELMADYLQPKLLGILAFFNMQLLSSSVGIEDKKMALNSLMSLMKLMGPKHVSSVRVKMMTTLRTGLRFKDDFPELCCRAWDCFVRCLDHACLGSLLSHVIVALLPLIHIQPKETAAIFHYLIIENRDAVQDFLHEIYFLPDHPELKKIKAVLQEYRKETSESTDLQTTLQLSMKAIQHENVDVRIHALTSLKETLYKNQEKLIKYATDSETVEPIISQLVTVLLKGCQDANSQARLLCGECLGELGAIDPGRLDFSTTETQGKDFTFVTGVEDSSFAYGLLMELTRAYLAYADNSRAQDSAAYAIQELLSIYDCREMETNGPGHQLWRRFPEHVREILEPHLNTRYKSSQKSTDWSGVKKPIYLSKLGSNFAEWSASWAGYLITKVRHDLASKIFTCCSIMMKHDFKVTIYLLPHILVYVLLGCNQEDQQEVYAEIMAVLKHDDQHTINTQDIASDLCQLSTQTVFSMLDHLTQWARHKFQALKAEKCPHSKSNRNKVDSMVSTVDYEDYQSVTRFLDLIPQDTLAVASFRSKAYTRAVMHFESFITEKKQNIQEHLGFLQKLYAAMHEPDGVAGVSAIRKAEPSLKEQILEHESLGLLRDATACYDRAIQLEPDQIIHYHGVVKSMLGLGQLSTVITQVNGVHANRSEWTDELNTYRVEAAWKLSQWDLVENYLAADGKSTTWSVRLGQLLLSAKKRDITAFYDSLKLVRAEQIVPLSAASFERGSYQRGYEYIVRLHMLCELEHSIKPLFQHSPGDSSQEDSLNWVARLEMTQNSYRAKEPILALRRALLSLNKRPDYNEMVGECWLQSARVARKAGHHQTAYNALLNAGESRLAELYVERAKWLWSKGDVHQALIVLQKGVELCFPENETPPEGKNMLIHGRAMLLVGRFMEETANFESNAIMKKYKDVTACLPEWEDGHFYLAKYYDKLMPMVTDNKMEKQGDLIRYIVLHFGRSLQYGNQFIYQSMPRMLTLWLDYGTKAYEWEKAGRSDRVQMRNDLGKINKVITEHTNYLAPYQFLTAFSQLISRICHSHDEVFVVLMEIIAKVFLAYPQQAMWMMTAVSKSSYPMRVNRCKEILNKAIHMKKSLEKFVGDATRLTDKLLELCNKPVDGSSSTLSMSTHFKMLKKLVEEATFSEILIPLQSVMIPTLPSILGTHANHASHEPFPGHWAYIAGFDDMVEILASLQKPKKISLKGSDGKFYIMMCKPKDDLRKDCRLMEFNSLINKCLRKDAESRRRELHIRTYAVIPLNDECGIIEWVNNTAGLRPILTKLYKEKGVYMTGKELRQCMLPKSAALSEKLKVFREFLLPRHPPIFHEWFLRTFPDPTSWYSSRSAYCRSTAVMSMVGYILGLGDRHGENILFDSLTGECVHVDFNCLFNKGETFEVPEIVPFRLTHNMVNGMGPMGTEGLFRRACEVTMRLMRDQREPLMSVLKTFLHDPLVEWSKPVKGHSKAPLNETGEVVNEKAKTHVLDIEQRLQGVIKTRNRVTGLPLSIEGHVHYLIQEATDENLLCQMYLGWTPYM
Chain of ATR/ATRIP (Q8WXE1 whole entry, further chain, the tested form may be a part): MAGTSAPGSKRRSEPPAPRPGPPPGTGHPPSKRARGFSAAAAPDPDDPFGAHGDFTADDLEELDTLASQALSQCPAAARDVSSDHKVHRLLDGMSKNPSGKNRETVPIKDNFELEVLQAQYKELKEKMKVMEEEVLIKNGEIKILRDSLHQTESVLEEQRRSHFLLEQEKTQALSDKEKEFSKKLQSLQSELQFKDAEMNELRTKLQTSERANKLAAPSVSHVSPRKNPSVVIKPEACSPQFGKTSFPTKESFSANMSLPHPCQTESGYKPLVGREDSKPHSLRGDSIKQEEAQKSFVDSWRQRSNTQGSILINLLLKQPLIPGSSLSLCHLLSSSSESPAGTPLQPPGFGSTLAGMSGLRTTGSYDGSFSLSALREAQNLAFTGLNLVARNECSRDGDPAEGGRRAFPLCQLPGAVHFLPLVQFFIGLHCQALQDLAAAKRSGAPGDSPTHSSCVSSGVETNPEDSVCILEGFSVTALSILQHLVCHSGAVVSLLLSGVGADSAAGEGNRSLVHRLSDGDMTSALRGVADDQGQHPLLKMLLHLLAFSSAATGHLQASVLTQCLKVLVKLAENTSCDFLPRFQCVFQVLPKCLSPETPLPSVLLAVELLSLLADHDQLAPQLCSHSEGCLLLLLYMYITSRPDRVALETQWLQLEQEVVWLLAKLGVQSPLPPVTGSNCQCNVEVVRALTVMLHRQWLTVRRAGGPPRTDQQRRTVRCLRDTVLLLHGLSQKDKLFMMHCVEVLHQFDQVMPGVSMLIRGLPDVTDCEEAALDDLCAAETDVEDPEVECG

Wee1-like protein kinase [5] = target: T1, Wee1-like protein kinase (Homo sapiens, UniProt P30291); assay: Displacement of tracer 178 from N-terminal GST-fused human WEE1 (215 to 646 residues) expressed in baculovirus expression system preincubated for 5 mins followed by tracer addition measured after 60 mins by Lantha Screen EU assay
T1 sequence (P30291 whole entry, the tested form may be a part): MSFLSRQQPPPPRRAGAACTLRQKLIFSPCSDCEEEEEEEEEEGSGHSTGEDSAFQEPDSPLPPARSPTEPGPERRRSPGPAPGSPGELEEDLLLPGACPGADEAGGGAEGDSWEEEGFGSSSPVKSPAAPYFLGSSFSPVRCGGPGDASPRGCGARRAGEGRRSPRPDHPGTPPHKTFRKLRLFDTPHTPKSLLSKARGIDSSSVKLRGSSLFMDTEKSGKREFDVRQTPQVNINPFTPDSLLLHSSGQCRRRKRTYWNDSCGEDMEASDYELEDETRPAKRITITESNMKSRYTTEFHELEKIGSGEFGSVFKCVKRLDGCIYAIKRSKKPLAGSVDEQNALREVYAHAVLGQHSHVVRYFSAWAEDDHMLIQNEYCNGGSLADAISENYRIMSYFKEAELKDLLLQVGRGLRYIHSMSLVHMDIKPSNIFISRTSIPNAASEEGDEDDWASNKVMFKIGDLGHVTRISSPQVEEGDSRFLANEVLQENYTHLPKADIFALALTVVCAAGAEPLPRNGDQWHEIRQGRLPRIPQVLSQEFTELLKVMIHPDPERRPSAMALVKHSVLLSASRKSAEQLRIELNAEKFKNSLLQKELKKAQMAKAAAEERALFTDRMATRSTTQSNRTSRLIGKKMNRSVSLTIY

[6] = AUC (0 to last) in overnight fasted rat at 5 mg/kg, po via gavage measured for 0.25 to 24 hrs by LC/MS/MS analysis; format: ADME, organism-based; design: time upper 24 hrs, dose 5 mg/kg, time lower 0.25 hrs, route po; conditions: in vivo
[7] = Cmax in overnight fasted rat at 5 mg/kg, po via gavage measured for 0.25 to 24 hrs by LC/MS/MS analysis; format: ADME, organism-based; design: dose 5 mg/kg, time upper 24 hrs, time lower 0.25 hrs, route po; conditions: in vivo
[8] = Oral bioavailability in BALB/c nude mouse at 1 mg/kg, iv measured for 0.08 to 24 hrs by LC-MS/MS analysis; format: ADME, organism-based; conditions: in vivo, time 0.08-24 hrs
[9] = AUC (0 to last) in BALB/c nude mouse at 1 mg/kg, iv measured for 0.08 to 24 hrs by LC-MS/MS analysis; format: ADME, organism-based; design: time 0.08-24 hrs, dose 1 mg/kg, route iv; conditions: in vivo
LoVo [10] = assay: Antitumor activity against human LoVo cells xenografted in BALB/c nude mouse assessed as tumor growth inhibition at 40 mg/kg,iv bid by vernier caliper method relative to control; format: functional; conditions: read-out: TGI
Wee1-like protein kinase [11] = target: T1, Wee1-like protein kinase; assay: Inhibition of WEE1 (unknown origin) using LSNLYHQGKFLQTFCGSPLYRRR polypeptide as substrate incubated for 40 mins in presence of [gamma-33P]-ATP by scintillation counting method
[12] = Half life in BALB/c nude mouse at 1 mg/kg, iv measured for 0.08 to 24 hrs by LC-MS/MS analysis; format: ADME, organism-based; conditions: in vivo, time 0.08-24 hrs
[13] = AUC (0 to last) in Sprague-Dawley rat at 10 mg/kg, iv by LC-MS/MS analysis; format: ADME, organism-based; design: time 0 - last, dose 10 mg/kg, route iv; conditions: in vivo
[14] = target: Serine/threonine-protein kinase Chk1 (Homo sapiens, UniProt O14757); assay: Inhibition of N-terminal GST-tagged full-length recombinant human CHK1 expressed in baculovirus infected Sf9 insect cells using FAM-P10 peptide as substrate preincubated for 10 mins followed by substrate addition measured after 60 mins by ADP-Glo assay
Chain of Serine/threonine-protein kinase Chk1 (O14757 whole entry): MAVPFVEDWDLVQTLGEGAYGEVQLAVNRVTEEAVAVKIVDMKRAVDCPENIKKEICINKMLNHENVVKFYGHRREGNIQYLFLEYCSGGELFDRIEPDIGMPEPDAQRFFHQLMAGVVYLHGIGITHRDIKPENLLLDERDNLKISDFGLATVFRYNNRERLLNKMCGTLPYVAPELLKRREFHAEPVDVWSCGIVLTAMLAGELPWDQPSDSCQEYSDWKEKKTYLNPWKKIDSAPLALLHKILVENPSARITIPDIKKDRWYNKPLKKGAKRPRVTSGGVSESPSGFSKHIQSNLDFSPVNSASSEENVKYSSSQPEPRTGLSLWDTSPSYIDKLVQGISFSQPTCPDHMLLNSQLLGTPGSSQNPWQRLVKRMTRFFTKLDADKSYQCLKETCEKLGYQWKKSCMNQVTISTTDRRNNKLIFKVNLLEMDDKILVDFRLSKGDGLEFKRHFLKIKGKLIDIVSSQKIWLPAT

[15] = Half life in Sprague-Dawley rat at 10 mg/kg, iv by LC-MS/MS analysis; format: ADME, organism-based; conditions: in vivo
[16] = AUC (0 to last) in BALB/c mouse at 2 mg/kg, po by LC-MS/MS analysis; format: ADME, organism-based; design: time 0 - last, dose 2 mg/kg, route po; conditions: in vivo
NCI-H1703 = assay: Antitumor activity against human NCI-H1703 cells xenografted in BALB/c mouse assessed as tumor growth inhibition at 90 mg/kg, bid measured on day 21 by vernier caliper method relative to control; format: functional; conditions: NCI-H1703, 504 h, read-out: TGI
[17] = Half life in BALB/c mouse at 0.4 mg/kg, iv by LC-MS/MS analysis; format: ADME, organism-based; conditions: in vivo
[18] = AUC (0 to last) in BALB/c mouse at 0.4 mg/kg, iv by LC-MS/MS analysis; format: ADME, organism-based; design: time 0 - last, dose 0.4 mg/kg, route iv; conditions: in vivo
[19] = Tmax in BALB/c mouse at 2 mg/kg, po by LC-MS/MS analysis; format: ADME, organism-based; conditions: in vivo
[20] = Oral bioavailability in BALB/c mouse at 2 mg/kg by LC-MS/MS analysis; format: ADME, organism-based; conditions: in vivo
[21] = Half life in BALB/c mouse at 2 mg/kg, po by LC-MS/MS analysis; format: ADME, organism-based; conditions: in vivo
[22] = Cmax in BALB/c mouse at 2 mg/kg, po by LC-MS/MS analysis; format: ADME, organism-based; design: dose 2 mg/kg, route po; conditions: in vivo
[23] = target: T2, Serine/threonine-protein kinase ATR (Homo sapiens, UniProt Q13535); assay: Inhibition of ATR (unknown origin)-driven CHK1 phosphorylation
T2 sequence (Q13535 whole entry): as the sequence (Q13535 whole entry, the tested form may be a part) above

[24] = target: T2, Serine/threonine-protein kinase ATR; assay: Binding affinity to ATR (unknown origin) assessed as inhibition constant
HT-29 = assay: Antitumor activity against human HT-29 cells xenografted in BALB/c mouse assessed as tumor growth inhibition relative to control; format: functional
[25] = Oral bioavailability in ICR mouse at 10 mg/kg measured for 5 to 1440 mins; format: ADME, organism-based; conditions: in vivo, time 5-1440 min
[26] = AUC (0 to last) in ICR mouse at 10 mg/kg, po measured for 5 to 1440 mins; format: ADME, organism-based; design: time 5-1440 min, dose 10 mg/kg, route po; conditions: in vivo
[27] = Cmax in ICR mouse at 10 mg/kg, po measured for 5 to 1440 mins; format: ADME, organism-based; design: time upper 1440 min, dose 10 mg/kg, time lower 5 min, route po; conditions: in vivo
[28] = Half life in ICR mouse at 3 mg/kg, iv measured for 2 to 1440 mins; format: ADME, organism-based; conditions: in vivo, time 2-1440 min
[29] = Half life in ICR mouse at 10 mg/kg, po measured for 5 to 1440 mins; format: ADME, organism-based; conditions: in vivo, time 5-1440 min
Wee1-like protein kinase [30] = target: T1, Wee1-like protein kinase; assay: Inhibition of N-terminal GST-tagged wild-type WEE1 (215 to 646 residues) (unknown origin) expressed in Sf21 insect cells incubated for 60 mins in presence of ATP by ELISA
[31] = Cmax in ICR mouse at 3 mg/kg, iv measured for 2 to 1440 mins; format: ADME, organism-based; design: time upper 1440 min, dose 3 mg/kg, time lower 2 min, route iv; conditions: in vivo
[32] = AUC (0 to last) in ICR mouse at 3 mg/kg, iv measured for 2 to 1440 mins; format: ADME, organism-based; design: time 2-1440 min, dose 3 mg/kg, route iv; conditions: in vivo
[33] = Tmax in ICR mouse at 3 mg/kg, iv measured for 2 to 1440 mins; format: ADME, organism-based; conditions: in vivo, time 2-1440 min
[34] = Tmax in ICR mouse at 10 mg/kg, po measured for 5 to 1440 mins; format: ADME, organism-based; conditions: in vivo, time 5-1440 min
[35] = AUC (0 to last) in mouse at 0.4 mg/kg, iv; format: ADME, organism-based; design: time 0 - last, dose 0.4 mg/kg, route iv; conditions: in vivo
[36] = Half life in mouse at 0.4 mg/kg, iv; format: ADME, organism-based; conditions: in vivo
[37] = target: DNA-dependent protein kinase catalytic subunit (Homo sapiens, UniProt P78527); assay: Inhibition of DNA-PK (unknown origin)
[38] = target: T3, Protein cereblon/Wee1-like protein kinase (Homo sapiens, UniProt P30291+Q96SW2); assay: PROTAC activity at CRBN/WEE1 in human […] assessed as induction of WEE1 degradation treated for 5 hrs by Western blot analysis; format: cell-based
T3 sequence (P30291 whole entry): as the sequence (P30291 whole entry, the tested form may be a part) above
T3 sequence (Q96SW2 whole entry): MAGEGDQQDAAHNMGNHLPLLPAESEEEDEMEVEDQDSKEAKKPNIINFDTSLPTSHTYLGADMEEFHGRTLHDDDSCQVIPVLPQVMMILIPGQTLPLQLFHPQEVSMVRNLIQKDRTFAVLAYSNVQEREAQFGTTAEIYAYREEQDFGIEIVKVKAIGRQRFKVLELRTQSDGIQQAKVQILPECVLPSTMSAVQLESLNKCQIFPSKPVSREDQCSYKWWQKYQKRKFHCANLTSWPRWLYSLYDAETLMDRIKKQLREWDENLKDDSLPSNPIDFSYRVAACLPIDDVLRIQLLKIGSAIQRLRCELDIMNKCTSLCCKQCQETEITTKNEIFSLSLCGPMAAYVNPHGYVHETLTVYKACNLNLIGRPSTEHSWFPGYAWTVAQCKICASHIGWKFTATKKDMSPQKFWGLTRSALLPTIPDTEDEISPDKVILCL

[39] = target: T3, Protein cereblon/Wee1-like protein kinase; assay: PROTAC activity at CRBN/recombinant WEE1 (unknown origin) assessed as induction of WEE1 degradation by FRET based Lantha Screen assay; format: protein assay

Question: For `C[C@@H]1COCCN1c1nc(-c2ccnn2C)c2c(n1)c(-c1ccn[nH]1)nn2C`, which IC50 (LoVo [1]) is on record?
Answer: The IC50 was 124 nM.

Question: What about the AUC [2] of the same compound?
Answer: The AUC was 2710 ng·h/mL.

Question: What about the half-life [3] of the same compound?
Answer: Its half-life is 134 min.

Question: And the Cmax [4]?
Answer: The Cmax was 674 ng/mL.

Question: And the IC50 (ATR/ATRIP)?
Answer: Its IC50 is 15 nM.

Question: Which results are given for `CN1CCC2(CC1)CCN(c1ccc(Nc3ncc4cc(C5CC5)n(-c5cccc(C(C)(C)O)n5)c4n3)cc1)CC2`?
Answer: IC50 (Wee1-like protein kinase [5]): 1.03 nM; AUC(0-t) [6]: 4070 ng·h/mL; Cmax [7]: 163 nM

Question: Which results are given for `CN1CCN(c2ccc(Nc3ncc4c(=O)n5n(c4n3)-c3cccc(n3)[C@@](C)(O)CCC/C=C\C5)cc2)CC1`?
Answer: bioavailability [8]: 62.4%; AUC(0-t) [9]: 6.04 µM·h; inhibition in vivo at 40 mg/kg (LoVo [10]): 84.7%; IC50 (Wee1-like protein kinase [11]): 29 nM; half-life [12]: 101 min

Question: With `CCOC(=O)NCCCOc1cc(F)cc(OC)c1-c1cc(Nc2cnc(C#N)cn2)n[nH]1` as the compound, how does the AUC(0-t) [13] read?
Answer: The AUC(0-t) was 2990 ng·h/mL.

Question: And the IC50 [14]?
Answer: Its IC50 is under 50 nM.

Question: What about the half-life [15] of the same compound?
Answer: Its half-life is 318 min.

Question: Which AUC(0-t) [16] does the source give for `Cc1cc2ncnn2cc1Nc1ncc2c(n1)n(N1CC3CCC(C1)O3)c(=O)n2C` here?
Answer: The AUC(0-t) was 3.49 µM·h.

Question: What about the inhibition in vivo at 90 mg/kg (NCI-H1703) of the same compound?
Answer: Its inhibition in vivo at 90 mg/kg is 79.4%.

Question: What about the half-life [17] of the same compound?
Answer: Its half-life is 76.8 min.

Question: What about the AUC(0-t) [18] of the same compound?
Answer: Its AUC(0-t) is 1.66 µM·h.

Question: What about the Tmax [19] of the same compound?
Answer: Its Tmax is 15 min.

Question: And the bioavailability [20]?
Answer: The bioavailability was 44.5%.

Question: What about the half-life [21] of the same compound?
Answer: Its half-life is 231 min.

Question: What about the Cmax [22] of the same compound?
Answer: The Cmax was 2170 nM.

Question: For `Nc1nn2cc(F)cnc2c1C(=O)Nc1cncc(F)c1N1CCC(C(=O)N2CCN(C3COC3)CC2)CC1` [M4344], which IC50 [23] is on record?
Answer: The IC50 was 8 nM.

Question: What about the Ki [24] of the same compound?
Answer: Its Ki is under 0.15 nM.

Question: With `COc1cc(F)cc(OCCCN)c1-c1cc(Nc2cnc(C#N)cn2)n[nH]1` as the compound, how does the AUC(0-t) [13] read?
Answer: The AUC(0-t) was 4640 ng·h/mL.

Question: What about the IC50 [14] of the same compound?
Answer: Its IC50 is under 1 nM.

Question: And the TGI (HT-29)?
Answer: The TGI was 51%.

Question: What does the source list for `C=CCn1c(=O)c2cnc(Nc3ccc(N4C[C@H]5CN(CC6CC6)C[C@H]5C4)cc3)nc2n1-c1ccc(C(C)(C)O)cn1`?
Answer: bioavailability [25]: 63.7%; AUC(0-t) [26]: 326 ng·h/mL; Cmax [27]: 266 nM; half-life [28]: 43.8 min; half-life [29]: 57 min; IC50 (Wee1-like protein kinase [30]): 3.12 nM; Cmax [31]: 430 nM; AUC(0-t) [32]: 153 ng·h/mL; Tmax [33]: 1.8 min; Tmax [34]: 55.2 min

Question: With `CN1CCN(C2CCN(c3ccc(Nc4ncc5c(F)c(C6CC6)n(-c6cccc(C(C)(C)O)n6)c5n4)cc3F)CC2)CC1` as the compound, how does the AUC(0-t) [6] read?
Answer: Its AUC(0-t) is 4580 ng·h/mL.

Question: What about the Cmax [7] of the same compound?
Answer: Its Cmax is 117 nM.

Question: With `CN1CC2CN(c3ccc(Nc4ncc5c(=O)n6n(c5n4)-c4cccc(n4)C(C)(O)CCC/C=C\C6)cc3)CC2C1` (configuration not stated) as the compound, how does the IC50 (Wee1-like protein kinase [11]) read?
Answer: The IC50 was 57 nM.

Question: For `COc1ccc(C2(c3cc(-c4ncnc5cc(N6CCOCC6)ccc45)c(F)cc3Cl)CC2)nn1`, which AUC(0-t) [35] is on record?
Answer: Its AUC(0-t) is 2260 ng·h/mL.

Question: And the half-life [36]?
Answer: The half-life was 35.4 min.

Question: What about the IC50 [37] of the same compound?
Answer: Its IC50 is 29 nM.

Question: Which EC50 [38] does the source give for `C=CCn1c(=O)c2cnc(Nc3ccc(N4CCN(CCCNc5cccc6c5C(=O)N(C5CCC(=O)NC5=O)C6=O)CC4)cc3)nc2n1-c1cccc(C(C)(C)O)n1` (configuration not stated) here?
Answer: The EC50 was 100 nM.

Question: What about the IC50 [39] of the same compound?
Answer: The IC50 was 3.58 nM.
